Source: ChEMBL document CHEMBL3351906, “Bioactive triterpenoid saponins and phenolic compounds against glioma cells” (Bioorg Med Chem Lett, 2014)
Active and inactive are the calls of the source. The calls are words filed in the database; no cut-off is given here.

What was measured:
C6 [1] = assay: Inhibition of cell proliferation of rat C6 cells assessed as cell viability after 72 hrs by sulforhodamine B assay; format: functional, cell-based; settings: for IC50: C6, 72 h
C6 [2] = assay: Inhibition of cell proliferation of rat C6 cells assessed as cell viability at 100 uM after 72 hrs by sulforhodamine B assay; format: functional; settings: C6, 72 h, read-out: Activity
U-251 [3] = assay: Inhibition of cell proliferation of human U251 cells assessed as cell viability after 72 hrs by sulforhodamine B assay; format: functional, cell-based; settings: for IC50: U-251, 72 h
U-251 [4] = assay: Inhibition of cell proliferation of human U251 cells assessed as cell viability at 100 uM after 72 hrs by sulforhodamine B assay; format: functional; settings: U-251, 72 h, read-out: Activity
U-87MG ATCC = assay: (§1) Inhibition of cell proliferation of human U87MG cells assessed as cell viability after 72 hrs by sulforhodamine B assay; format: functional, cell-based
[5] = as §1; format: functional, cell-based, U-87MG ATCC; settings: U-87 MG
C6 [6] = assay: Induction of necrosis in rat C6 cells at 2.5 uM after 72 hrs by propidium iodide staining based fluorescence microscopy; format: functional, cell-based
U-251 [7] = assay: Induction of apoptosis in human U251 cells assessed as nuclear pyknosis at 20 uM after 72 hrs by DAPI staining based fluorescence microscopy; format: functional, cell-based
C6 [8] = assay: Induction of apoptosis in rat C6 cells assessed as nuclear pyknosis at 2.5 uM after 72 hrs by DAPI staining based fluorescence microscopy; format: functional, cell-based
U-251 [9] = assay: Induction of necrosis in human U251 cells at 20 uM after 72 hrs propidium iodide staining based fluorescence microscopy; format: functional, cell-based

## C[C@@H]1O[C@@H](O[C@H]2[C@H](OC(=O)[C@]34CCC(C)(C)C[C@H]3C3=CC[C@@H]5[C@@]6(C)CC[C@H](O[C@@H]7O[C@H](CO[C@@H]8OC[C@H](O)[C@H](O)[C@H]8O[C@@H]8OC[C@@H](O)[C@H](O)[C@H]8O)[C@@H](O)[C@H](O)[C@H]7O)C(C)(C)[C@@H]6CC[C@@]5(C)[C@]3(C)CC4)O[C@H](CO)[C@@H](O)[C@@H]2O)[C@H](O)[C@H](O)[C@H]1O[C@@H]1OC[C@@H](O)[C@H](O[C@@H]2OC[C@@H](O)[C@H](O)[C@H]2O)[C@H]1O
C6 [1]
  inhibition: inactive
C6 [2]
  viability at 100 µM: 62.7%
U-251 [3]
  inhibition: inactive
U-251 [4]
  viability at 100 µM: 91.8%
U-87MG ATCC
  inhibition: inactive

## Cn1nnc2c(C(N)=O)ncn2c1=O [TEMOZOLOMIDE]
C6 [1]
  IC50: 60.5 µM
U-251 [3]
  IC50: > 200 µM
[5]
  IC50: > 200 µM

## C[C@@H]1O[C@@H](OC[C@H]2O[C@@H](OC(=O)[C@]34CCC(C)(C)C[C@H]3C3=CC[C@@H]5[C@@]6(C)CC[C@H](O[C@@H]7O[C@H](CO[C@@H]8OC[C@H](O)[C@H](O)[C@H]8O[C@@H]8OC[C@@H](O)[C@H](O)[C@H]8O)[C@@H](O)[C@H](O)[C@H]7O)C(C)(C)[C@@H]6CC[C@@]5(C)[C@]3(C)CC4)[C@H](O[C@@H]3O[C@@H](C)[C@H](O[C@@H]4OC[C@@H](O)[C@H](O[C@@H]5OC[C@@H](O)[C@H](O)[C@H]5O)[C@H]4O)[C@@H](O)[C@H]3O)[C@@H](O)[C@@H]2O)[C@H](O)[C@H](O)[C@H]1O
C6 [1]
  inhibition: inactive
C6 [2]
  viability at 100 µM: 97.2%
U-251 [3]
  inhibition: inactive
U-251 [4]
  viability at 100 µM: 83.9%
U-87MG ATCC
  inhibition: inactive

## CC1(C)CC[C@]2(C(=O)O)CC[C@]3(C)C(=CC[C@@H]4[C@@]5(C)CC[C@H](O[C@@H]6O[C@H](CO[C@@H]7OC[C@H](O)[C@H](O)[C@H]7O[C@@H]7OC[C@@H](O)[C@H](O)[C@H]7O)[C@@H](O)[C@H](O)[C@H]6O)C(C)(C)[C@@H]5CC[C@]43C)[C@@H]2C1 [PITHEDULOSIDE C]
C6 [1]
  inhibition: inactive
C6 [2]
  viability at 100 µM: 63%
U-251 [3]
  inhibition: inactive
U-251 [4]
  viability at 100 µM: 104%
U-87MG ATCC
  inhibition: inactive

## C[C@@H]1O[C@@H](OC[C@H]2O[C@@H](OC(=O)[C@]34CCC(C)(C)C[C@H]3C3=CC[C@@H]5[C@@]6(C)CC[C@H](O[C@@H]7O[C@H](CO[C@@H]8OC[C@H](O)[C@H](O)[C@H]8O)[C@@H](O)[C@H](O)[C@H]7O)C(C)(C)[C@@H]6CC[C@@]5(C)[C@]3(C)C[C@H]4O)[C@H](O[C@@H]3O[C@@H](C)[C@H](O[C@@H]4OC[C@@H](O)[C@H](O[C@@H]5OC[C@@H](O)[C@H](O)[C@H]5O)[C@H]4O)[C@@H](O)[C@H]3O)[C@@H](O)[C@@H]2O)[C@H](O)[C@H](O)[C@H]1O
C6 [1]
  inhibition: inactive
C6 [2]
  viability at 100 µM: 63.9%
U-251 [3]
  inhibition: inactive
U-251 [4]
  viability at 100 µM: 72.3%
U-87MG ATCC
  inhibition: inactive

## C[C@@H]1O[C@@H](O[C@H]2[C@H](OC(=O)[C@]34CCC(C)(C)C[C@H]3C3=CC[C@@H]5[C@@]6(C)CC[C@H](O[C@@H]7O[C@H](CO[C@@H]8OC[C@H](O)[C@H](O)[C@H]8O[C@@H]8OC[C@@H](O)[C@H](O)[C@H]8O)[C@@H](O)[C@H](O)[C@H]7O)C(C)(C)[C@@H]6CC[C@@]5(C)[C@]3(C)C[C@H]4O)O[C@H](CO)[C@@H](O)[C@@H]2O)[C@H](O[C@@H]2OC[C@@H](O)[C@H](O)[C@H]2O)[C@H](O)[C@H]1O[C@@H]1OC[C@@H](O)[C@H](O[C@@H]2OC[C@@H](O)[C@H](O)[C@H]2O)[C@H]1O
C6 [1]
  inhibition: inactive
C6 [2]
  viability at 100 µM: 81.6%
U-251 [3]
  inhibition: inactive
U-251 [4]
  viability at 100 µM: 93.6%
U-87MG ATCC
  inhibition: inactive

## C=CC(C)(O)CC/C=C(\CO)C(=O)OC[C@H]1O[C@@H](OC(=O)[C@]23CCC(C)(C)C[C@H]2C2=CC[C@@H]4[C@@]5(C)CC[C@H](O[C@@H]6O[C@H](CO[C@@H]7OC[C@H](O)[C@H](O)[C@H]7O[C@@H]7OC[C@@H](O)[C@H](O)[C@H]7O)[C@@H](O)[C@H](O)[C@H]6O)C(C)(C)[C@@H]5CC[C@@]4(C)[C@]2(C)CC3)[C@H](O[C@@H]2O[C@@H](C)[C@H](O[C@@H]3OC[C@@H](O)[C@H](O[C@@H]4OC[C@@H](O)[C@H](O)[C@H]4O)[C@H]3O)[C@@H](O)[C@H]2O)[C@@H](O)[C@@H]1O (stereo partly drawn)
C6 [1]
  IC50: 31.7 µM
U-251 [3]
  IC50: 44.5 µM
U-251 [4]
  viability at 100 µM: 32.9%

## C=CC(C)(O)CC/C=C(\CO)C(=O)O[C@H]1[C@H](O)[C@@H](COC(=O)/C(C)=C/CC[C@](C)(O)C=C)O[C@@H](OC(=O)[C@]23CCC(C)(C)C[C@H]2C2=CC[C@@H]4[C@@]5(C)CC[C@H](O[C@@H]6O[C@H](CO[C@@H]7OC[C@H](O)[C@H](O)[C@H]7O[C@@H]7OC[C@@H](O)[C@H](O)[C@H]7O)[C@@H](O)[C@H](O)[C@H]6O)C(C)(C)[C@@H]5CC[C@@]4(C)[C@]2(C)CC3)[C@@H]1O[C@@H]1O[C@@H](C)[C@H](O[C@@H]2OC[C@@H](O)[C@H](O[C@@H]3OC[C@@H](O)[C@H](O)[C@H]3O)[C@H]2O)[C@@H](O)[C@H]1O (stereo partly drawn)
C6 [1]
  IC50: 13.6 µM
U-251 [3]
  IC50: 15.2 µM
U-251 [4]
  viability at 100 µM: 9.84%

## CC(=O)Oc1ccc(CCOC(=O)CCc2ccc(OC(C)=O)c(OC(C)=O)c2)cc1OC(C)=O
C6 [1]
  IC50: 12.8 µM
U-251 [3]
  IC50: 37.2 µM
U-251 [4]
  viability at 100 µM: 43.5%

## C[C@@H]1O[C@@H](O[C@H]2[C@H](OC(=O)[C@]34CCC(C)(C)C[C@H]3C3=CC[C@@H]5[C@@]6(C)CC[C@H](O[C@@H]7O[C@H](CO[C@@H]8OC[C@H](O)[C@H](O)[C@H]8O[C@@H]8OC[C@@H](O)[C@H](O)[C@H]8O)[C@@H](O)[C@H](O)[C@H]7O)C(C)(C)[C@@H]6CC[C@@]5(C)[C@]3(C)C[C@H]4O)O[C@H](CO)[C@@H](O)[C@@H]2O)[C@H](O[C@@H]2O[C@H](CO)[C@H](O)[C@H](O)[C@H]2O)[C@H](O)[C@H]1O[C@@H]1OC[C@@H](O)[C@H](O[C@@H]2OC[C@@H](O)[C@H](O)[C@H]2O)[C@H]1O
C6 [1]
  inhibition: inactive
C6 [2]
  viability at 100 µM: 61.5%
U-251 [3]
  inhibition: inactive
U-251 [4]
  viability at 100 µM: 130%
U-87MG ATCC
  inhibition: inactive

## C=CC(C)(O)CC/C=C(\CO)C(=O)O[C@H]1[C@H](OC[C@H]2O[C@@H](OC(=O)[C@]34CCC(C)(C)C[C@H]3C3=CC[C@@H]5[C@@]6(C)CC[C@H](O[C@@H]7O[C@H](CO[C@@H]8OC[C@H](O)[C@H](O)[C@H]8O[C@@H]8OC[C@@H](O)[C@H](O)[C@H]8O)[C@@H](O)[C@H](O)[C@H]7O)C(C)(C)[C@@H]6CC[C@@]5(C)[C@]3(C)C[C@H]4O)[C@H](O[C@@H]3O[C@@H](C)[C@H](O[C@@H]4OC[C@@H](O)[C@H](O[C@@H]5OC[C@@H](O)[C@H](O)[C@H]5O)[C@H]4O)[C@@H](O)[C@H]3O)[C@@H](O)[C@@H]2O)O[C@@H](C)[C@H](O)[C@H]1OC(=O)/C(C)=C/CC[C@@](C)(O)C=C (stereo partly drawn)
C6 [1]
  IC50: 30.3 µM
U-251 [3]
  IC50: 43.1 µM
U-251 [4]
  viability at 100 µM: 29.2%

## C/C=C(\C)C(=O)O[C@H]1[C@H](O)[C@]2(COC(C)=O)[C@H](O)C[C@]3(C)C(=CC[C@@H]4[C@@]5(C)CC[C@H](O[C@@H]6O[C@H](C(=O)OC)[C@@H](O[C@@H]7O[C@H](CO)[C@@H](O)[C@H](O)[C@H]7O)[C@H](O)[C@H]6O[C@@H]6O[C@H](CO)[C@@H](O)[C@H](O)[C@H]6O)[C@](C)(CO)[C@@H]5CC[C@]43C)[C@@H]2CC1(C)C
C6 [1]
  IC50: 60.7 µM
U-251 [3]
  IC50: 48.4 µM
U-251 [4]
  viability at 100 µM: 26.2%

## CC1(C)CC[C@]2(C(=O)O)[C@H](O)C[C@]3(C)C(=CC[C@@H]4[C@@]5(C)CC[C@H](O[C@@H]6O[C@H](CO[C@@H]7OC[C@H](O)[C@H](O)[C@H]7O[C@@H]7OC[C@@H](O)[C@H](O)[C@H]7O)[C@@H](O)[C@H](O)[C@H]6O)C(C)(C)[C@@H]5CC[C@]43C)[C@@H]2C1
C6 [1]
  inhibition: inactive
C6 [2]
  viability at 100 µM: 86.2%
U-251 [3]
  inhibition: inactive
U-251 [4]
  viability at 100 µM: 88.8%
U-87MG ATCC
  inhibition: inactive

## COc1cc(CCC(=O)OCCc2ccc(O)c(O)c2)ccc1O
C6 [1]
  IC50: 5.37 µM
U-251 [3]
  IC50: 29.5 µM
C6 [6]
  Activity: Active
U-251 [4]
  viability at 100 µM: 48.4%
U-251 [7]
  Activity: Active
C6 [8]
  Activity: Active
U-251 [9]
  Activity: Active

## CC(C)=CCC[C@@H](C)[C@H]1CC[C@]2(C)[C@@H]1[C@H](O)C[C@@H]1[C@@]3(C)CC[C@H](O)C(C)(C)[C@@H]3[C@@H](O)C[C@]12C
C6 [1]
  IC50: 49.7 µM
U-251 [3]
  IC50: 117 µM
U-251 [4]
  viability at 100 µM: 49.4%
